Measured values reported in patent publication US20260309621A1, “HIGH THROUGHPUT OPTICAL ASSAY FOR SCREENING HEMOGLOBIN OXYGEN AFFINITY MODIFYING DRUG” (CASE WESTERN RESERVE UNIVERSITY, priority 2023, published 2026).
Blank lines part the entries; values can stand above or below the compound they belong to.

Assays:
[1] = test system: HbAA and HbSS whole blood; experiment: pO2 reduction in whole blood by Na2S2O5 (blood gas analyzer); set-up: species or system human
Protocol: All samples were initially exposed to ambient air for 600 seconds. The oxygen partial pressure (pO2), 21% of atmospheric pressure (773 mmHg), was then normalized to 162 mmHg PO2 during oxygenation (FIG. 7A). Sodium metabisulphite (Na2S2O5) was used to deoxygenate the samples chemically (FIG. 7B). Predetermined amounts of sodium metabisulphite were mixed with 2 ml of the prepared samples for 90 seconds using a vortexer (Scientific Industries, Bohemia, NY). The concentrations of Na2S2O5 used with purified hemoglobin were 0.039 M, 0.046 M, 0.053 M, 0.059 M, 0.066 M, 0.079 M, and 0.082 M, which corresponded to a gradual reduction in the oxygen partial pressure in the samples. For whole blood and RBC analyses, we used 0.053 M of Na2S2O (17-fold more molecules than Hb molecules in solution) to achieve partial deoxygenation (Table 1). A blood gas analyzer (Nova Starter Pro, Nova BioMed, Boston, Massachusetts) was used to confirm the deoxygenation levels at those Na2S2O5 concentrations.
We used sodium metabisulphite (Na2S2O5) to deoxygenate purified hemoglobin, intact RBCs, or whole blood (FIGS. 7A & B). […] At elevated concentrations of Na2S2O5, corresponding to high levels of deoxygenation or pO2 close to 30 mmHg, the curve plateaus (FIG. 8).

HbSS patient whole blood = experiment: Peak wavelength shift of whole blood from SCD patients stratified by treatment; set-up: species or system human
Protocol: Blood samples were collected from healthy donors and individuals with SCD as part of standard clinical care. We received ethical approval from the University Hospitals of Cleveland Medical Center's Institutional Review Board (IRB) and Joint Clinical Research Ethics Committee in Kampala, Uganda, for the Naïve SCD group. All participants in the study provided written informed consent. When collected, blood samples were de-identified, kept at 4 degrees Celsius, and processed within 6 hours of receipt. […] Hemoglobin profiles of samples were verified using the reference standard high performance liquid chromatography (HPLC, VARIANT™ II, Bio-Rad Laboratories, Inc., Hercules, California). […] Intracellular hemoglobin concentration for all blood samples was measured under normoxia with complete blood count (CBC, Hemavet 950FS, Hematology System, Draw Scientific Inc.; Miami, Florida).
During testing with either oxygenation or deoxygenation, samples were analyzed in three microplate wells using a spectroscopy microplate reader Spectramax M2e (Molecular Devices, San Jose, CA), over a spectral range of 350-750 nm, with a wavelength resolution of 2 nm and at a customized microplate well reading setting at room temperature. […] (3) For each sample and at concentration of 0.053 M Na2S2O5, the bathochromic wavelength shift and intensity were assessed for further analysis (FIG. 7D). […]

HbSS = biological target: T1, HbSS (Homo sapiens, UniProt P68871+P69905, E7V); experiment: 96-well high throughput optical absorption assay: Soret band peak wavelength shift of deoxygenated SCD samples treated with oxygen modifying molecules; format: biochemical
T1 construct: whole blood, washed red cells or purified hemoglobin
Description: FIGS. 3(A-C) illustrate varying concentration of voxelotor tested using 96 well plates optical assay. (A) Representative 96 well plate, showing the arrangement of a single sample analyzed. […] (B) Insert from the 12 columns of the 96 well plate, showing the Soret band peak wavelength shift in the wavelength range of 380-450 nm.
FIGS. 4(A-B) illustrate increasing the concentration of voxelotor induces a decrease in the peak wavelength of SCD samples (A) Insert from the 12 columns of the 96 well plate, showing the Soret band peak wavelength shift in the wavelength range of 380-450 nm.
FIGS. 5(A-B) illustrate varying concentration of PKR activator tested using 96 well plates optical assay. (A) Insert from the 12 columns of the 96 well plate, showing the Soret band peak wavelength shift in the wavelength range of 380-450 nm.
FIGS. 6(A-B) illustrate varying concentrations of aptamer induce peak wavelength shift. (A) Soret band peak wavelength shifts for oxygenated blood with aptamer deoxygenated blood with aptamer, untreated blood, and voxelotor treatment were compared in the wavelength range of 350-450. Increasing the concentration of aptamer from 0.2 dosages (B) Increasing the concentration of aptamer from 0.2 dosages to 0.25 induces a reduction in peak wavelength from 416 nm to 414 nm.
This example relates to a 96-well high throughput assay optical absorption spectroscopic assay that can be used to assess the rate of oxygen release from hemoglobin.
Whole blood, purified hemoglobin, or washed red blood cells (RBCs) are mixed with a buffer solution at 6.8 or 8. Additional hemoglobin or RBCs to an acidic buffer changes the molecular conformational structure of hemoglobin. Determined volume of the analyte (including but not limited to whole blood, purified hemoglobin, or red blood cells (RBCs)) are mixed with buffer are added to each of the 12/96/384 well plates. The analytes are then chemically deoxygenated with a determined concentration of sodium metabisulphite an approach to deplete oxygen from hemoglobin molecules. The solution is analyzed using a spectroscopic microplate reader. […]

purified hemoglobin = experiment: Circular dichroism spectra of purified hemoglobin at pH 6.9; format: physicochemical, human; conditions: purified Hb, pH 6.9, 75 mmHg, deoxy
Description: The circular dichroism (CD) spectra, like the absorption spectra in the Soret and visible range, reveal the molecular structure of the hemoglobin globin and heme groups. […] CD spectra were collected between 190 and 650 nm wavelength on a Jasco J-1500 Spectropolarimeter with a 1 mm quartz cuvette and a scan rate of 4 seconds. The recorded spectra were background subtracted, accounting for a pH 6.9 buffer. The data was baselined and smoothed in the Spectra Manager software (Release 2018; Version 2.15.01).

hemoglobin (HbAA, HbSS) = experiment: Hemoglobin-oxygen dissociation assay (Soret band bathochromic shift with partial chemical deoxygenation by Na2S2O5); format: biochemical, human; conditions: for Peak wavelength: pH 6.9, pO2 = 75 mmHg, mean ± SEM; for peak wavelength, repeatability: ~20 mmHg pO2, mean ± SEM
Description: Herein, we take advantage of the unique optical shift of Hb's Soret band and combine it with partial chemical deoxygenation to optically measure Hb-O2 dissociation under physiologically acidic conditions at pH 6.9.
Blood samples were collected from healthy donors and individuals with SCD as part of standard clinical care. We received ethical approval from the University Hospitals of Cleveland Medical Center's Institutional Review Board (IRB) and Joint Clinical Research Ethics Committee in Kampala, Uganda, for the Naïve SCD group. All participants in the study provided written informed consent. When collected, blood samples were de-identified, kept at 4 degrees Celsius, and processed within 6 hours of receipt. […] Hemoglobin profiles of samples were verified using the reference standard high performance liquid chromatography (HPLC, VARIANT™ II, Bio-Rad Laboratories, Inc., Hercules, California). The results were presented as a percentage of HbS, A2, and F; the remainder was considered HbA since the values were normalized to 100%. Intracellular hemoglobin concentration for all blood samples was measured under normoxia with complete blood count (CBC, Hemavet 950FS, Hematology System, Draw Scientific Inc.; Miami, Florida).
Three independent sample preparations were performed to test different hypotheses. (1) Whole blood, (2) isolated intact red blood cells (RBC), and (3) purified hemoglobin (lysed samples).
For whole blood preparation, 75 μl of whole blood was mixed with pH 6.9 buffers at a ratio of 1:300 and incubated for 10 minutes at room temperature before deoxygenation.
For intact RBC sample preparation, whole blood was centrifuged at 500 g for 10 minutes in a microcentrifuge (model 21r; Thermo Scientific, Waltham, MA). The plasma and buffy coat were removed via aspiration. The RBCs were washed thrice with phosphate-buffered saline (PBS) at pH 7.4 (Gibco, Thermo Scientific, Waltham, MA). Next, 45 μL of the washed RBC suspension was diluted with a pH 6.9 buffer solution until the baseline hematocrit of 0.2% was achieved. Before deoxygenation, RBCs were incubated for 10 minutes in a pH 6.9 buffer solution at room temperature.
For purified hemoglobin preparation; lysed samples were prepared. Hemolysis was carried out by sonication for 30 seconds (Hemex Health; Portland, OR). Following hemolysis, the lysed cell suspension was added to various pH buffer solutions and centrifuged at 2000 g for 1 hour. Three hundred μl of the cell lysate was removed, and the supernatant was dis-carded. Cell lysates were diluted in 700 μl of the specific pH buffer solution and centrifuged at 2000 g for 1 hour. The 1 ml of pH buffer solution and cell lysate were filtered through a 0.02 μm Millipore membrane. The hemoglobin concentration in the lysed sample was determined using the hemoglobin [COMPOUND LEFT OUT] (HiCN) method and measured with a cuvette spectrophotometer at 540 nm. Each purified lysed sample was diluted with different pH solutions (pH 6.9, 7.2, 7.4, 8.0, and 10.0) to achieve a hemoglobin concentration of 2.8 mg dl^−1, determined as the baseline for lysed sample analysis.

Compound: O=S([O-])S(=O)(=O)[O-].[Na+].[Na+] [Na2S2O5, sodium metabisulfite]
pO2 in whole blood with increased Na2S2O5 concentration ([1]; 0-0.08 M Na2S2O5, 4 minutes, pH 6.9, 7.2, 7.4, 8.0, HbAA and HbSS, n=5, FIG. 8): 20-40 mmHg
deoxygenation of hemoglobin ([1]; 0.053 M Na2S2O5): partial deoxygenation of hemoglobin
pO2 of deoxygenated samples ([1]; 0.053 M Na2S2O5): 75 mmHg
min. pO2 in HbSS whole blood ([1]; 0.053 M Na2S2O5, FIG. 8B): around 10 mmHg

Compound: NC(=O)NO [hydroxyurea]
peak wavelength shift differences, oxygenated samples (HbSS patient whole blood; Hu HbSS, oxygenated, FIG. 11C): No significant differences
bathochromic shift differences between HbAA, HbAS and HbSS stratified by treatment (HbSS patient whole blood; hydroxyurea (Hu HbSS=15), deoxygenated 75 mmHg, pH 6.9, FIG. 11C): significant differences

difference in peak wavelength shift between deoxy HbSS and deoxy HbSS+Vox (HbSS; 63, 118, 211 and 421 μM Vox, Mann-Whitney, FIG. 4): Significate differences
peak wavelength shift of treated SCD samples compared to untreated SCD samples (HbSS; voxelotor, 3 hours incubation, varying concentrations): reduced peak wavelength shift
effect of increasing concentration on oxygen affinity of HbSS (HbSS; voxelotor, reduction in peak wavelength shift to that of HbAA, FIG. 4): increases the oxygen affinity of HbSS
Compound: CC(C)n1nccc1-c1ncccc1COc1cccc(O)c1C=O [voxelotor]

Compound: HbAA: healthy hemoglobin
CD Soret peak, partially deoxygenated (purified hemoglobin): 425 nm
peak wavelength, fully oxygenated (hemoglobin (HbAA, HbSS); 162 mmHg pO2, all pH values): 414 nm
Peak wavelength (hemoglobin (HbAA, HbSS); RBCs): 418.0 ± 0.56 (n = 15)
peak wavelength, repeatability (hemoglobin (HbAA, HbSS); User1, whole blood): 414.9±0.11
peak wavelength, repeatability (hemoglobin (HbAA, HbSS); User2, whole blood): 415.1±0.05
Peak wavelength (hemoglobin (HbAA, HbSS); purified hemoglobin): 417.2 ± 0.78 (n = 23)
area under the peak (hemoglobin (HbAA, HbSS); whole blood, FIG. 10I, pH 6.9, 75 mmHg pO2): 37.2±0.8
FWHM (hemoglobin (HbAA, HbSS); whole blood, FIG. 10J, pH 6.9, 75 mmHg pO2): 24.3±0.82
Peak wavelength (hemoglobin (HbAA, HbSS); whole blood): 415.3 ± 0.23 (n = 15)

Compound: purified Hb: purified hemoglobin (lysed samples)
peak wavelength of purified Hb with increasing Hb concentration (hemoglobin (HbAA, HbSS); purified Hb 0.3-11.2 mg/dl, FIG. 13): 420±0.2
